Source: US20060014722A1, “Per (3,6-anhydro) cyclodextrin derivatives, their preparation and use thereof for separating ions, in particular chromium and manganese anions” (priority 2002, published 2006)

How the values were obtained:
[1] = Ion-exchange plate chromatography (retardation factor Rf), complexing of chromium anions; assay type: binding; conditions: Polygram Ionex 25-SA-Na plates charged with the ion, developed four times in water
Text: (§1) The use of thin layer chromatography plates charged with ions allows rapid evaluation of the complexing of these ions by the species to be evaluated; in the present case, plates of the Polygram Ionex 25-SA-Na type (Macherey-Nagel, ref.: 80613) charged with various counterions to be evaluated.
(§2) Thus, chromatography plates are used onto which are respectively bound the ions acetyl COO^− (designated Ac in FIG. 1), PO4^3−, NO3^−, Cr2O7^2−, Cl^−, SO4^2^−, HCO3^−, BO3^−, WO4^2−, MnO4^−, CrO4^2−, AsO4^2−, AlO2^−.
(§3) In each test, there is introduced onto the plate the compound of Example 1 which will be retained on the plate if it complexes the ions. […] The lower the Rf, for a given ion, the more the ion in question will form a complex with the cyclodextrin compound.

[2] = Ion-exchange plate chromatography, complexing of cations; assay type: binding; conditions: 18 cations tested on ion-exchange plates
Text: as §1, §3
Likewise, tests were carried out to see whether the derivatives according to the invention were capable of complexing cations. Tests were carried out with the following ions:
Na^+, K^+, Cs^+,NH4^+,Ca^2+,Ba^2+, Al^3+, Fe^3+, Co^2+, Ni^2+, Cu^2+, Ag^2+, Zn^2+, Hg^2+, Pb^2+, La^3+, Gd^3+, UO2^2+.

[3] = Ion-exchange plate chromatography (retardation factor Rf), complexing of manganese anions; assay type: binding; conditions: Polygram Ionex 25-SA-Na plates charged with the ion, developed four times in water
Text: as §1, §2, §3

[4] = Solubility in water; assay type: physicochemical

per(3,6-anhydro)cyclomaltohexaose per-2-O-ethylcarbamate [Example 1]
complexing rate for chromium ions (Rf, FIG. 1) [1]: high complexing rate | complexing of cations (Rf, FIG. 2) [2]: none of these cations efficiently forms a complex | complexing rate for manganese ions (Rf, FIG. 1) [3]: high complexing rate | solubility in water [4]: low solubility in water
